# According to patent publication US20220079931A1, “ESTROGEN RECEPTOR PROTEIN DEGRADERS” (THE REGENTS OF THE UNIVERSITY OF MICHIGAN, priority 2019, published 2022):
# Experiments:
# MCF-7 cells [1] = assay: WST-8 cell proliferation assay in MCF-7 cells; type: cell-based, human
# Description: Cell Culture. Human breast cancer cell lines MCF-7 (ATCC® HTB-22™) and T47D (ATCC® HTB-133™) were purchased from the American Type Culture Collection (ATCC), Manassas, Va., and maintained and cultured in Dulbecco's Modified Eagle's medium (DMEM) containing 10% fetal bovine serum, 1 unit/ml of penicillin and 1 μg/ml of streptomycin. Cells with 3-8 passages after purchase were used in experiments as indicated.
# (§1) Cell Growth Assay. Cells were seeded at 1500/well in 96 well plates overnight. One day after seeding, they were treated with indicated doses of compounds. The growth of the cells was evaluated by colorimetric WST-8 assay 4 days after the compound treatment following the instructions of the manufacturer, Cayman Chemical, Ann Arbor, Mich.
# (§2) Fulvestrant achieves an Imax value of 43.8%. […] RAD1901, a previously reported SERD molecule^18, achieves an Imax value of 25.7%.
# [2] = test system: primary human mammary epithelial cells; assay: Cell proliferation in primary human mammary epithelial cells; type: cell-based
# Description: as §1, §2
# ERα = molecular target: T1, ERα (Homo sapiens, UniProt P03372); assay: Mechanism of ER degradation: pretreatment with VHL ligand, ER ligand or proteasome inhibitor, Western blotting in MCF-7 cells; type: cell-based; parameters: host or cells: MCF-7; conditions: 32 at 30 nM 4 h
# T1 sequence (P03372 1-595): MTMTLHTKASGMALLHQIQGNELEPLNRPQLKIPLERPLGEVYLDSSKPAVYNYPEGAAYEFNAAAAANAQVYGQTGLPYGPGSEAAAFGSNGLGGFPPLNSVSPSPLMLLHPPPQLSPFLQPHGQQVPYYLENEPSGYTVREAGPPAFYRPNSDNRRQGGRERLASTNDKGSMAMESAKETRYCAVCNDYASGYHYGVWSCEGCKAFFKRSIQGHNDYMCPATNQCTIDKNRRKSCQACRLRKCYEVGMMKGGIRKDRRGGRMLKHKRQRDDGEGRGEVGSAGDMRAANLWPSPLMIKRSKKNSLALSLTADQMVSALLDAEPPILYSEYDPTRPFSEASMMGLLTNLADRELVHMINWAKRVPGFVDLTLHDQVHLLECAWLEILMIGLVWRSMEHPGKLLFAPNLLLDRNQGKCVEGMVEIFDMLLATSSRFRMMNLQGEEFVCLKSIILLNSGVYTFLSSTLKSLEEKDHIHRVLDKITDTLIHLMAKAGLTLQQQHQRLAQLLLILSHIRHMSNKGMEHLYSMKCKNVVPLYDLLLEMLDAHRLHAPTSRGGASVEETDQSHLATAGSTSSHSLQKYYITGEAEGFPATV
# Description: (§3) Then whole-cell lysates were analyzed by Western blotting.
# as §3
# Western Blot Analysis. […] Cells treated with indicated compounds were lysed in Radioimmunoprecipitation Assay Protein Lysis and Extraction Buffer (25 mmol/L Tris.HCl, pH 7.6, 150 mmol/L NaCl, 1% Nonidet P-40, 1% sodium deoxycholate, and 0.1% sodium dodecyl sulfate) containing proteinase inhibitor cocktail (Roche Diagnostics, Mannheim, Germany). After determination of protein concentration by BCA assay (Fisher Scientific, Pittsburgh, Pa.), equal amounts of total protein were electrophoresed through 10% SDS-polyacrylamide gels. The separated protein bands were transferred onto PVDF membranes (GE Healthcare Life Sciences, Marlborough, Mass.) and blotted against different antibodies, as indicated. The human estrogen receptor a antibodies (AB16460) were purchased from Abeam, Inc., Cambridge, Mass. The membranes were reblotted with horseradish peroxidase-conjugated anti-glyceraldehyde-3-phosphate dehydrogenase antibody (G9295) from Sigma-Aldrich Corporation, St. Louis, Mo. The blots were scanned and the band intensities were quantified using GelQuant.NET software as described in biochemlabsolutions.com. The relative mean intensity of target proteins was expressed after normalization to the intensity of glyceraldehyde-3-phosphate dehydrogenase bands from individual repeats.
# [3] = test system: mRNA levels of pGR and GREB1; assay: qRT-PCR of ER-regulated genes in MCF-7 cells
# MCF-7 cells [4] = assay: Crystal violet staining experiment in MCF-7 cells; conditions: 10 nM, 100 nM and 300 nM, versus raloxifene and fulvestrant
structure (smiles),measurement,setting,value
"CCN(CCCCCOCC(=O)N[C@H](C(=O)N1C[C@H](O)C[C@H]1C(=O)N[C@@H](C)c1ccc(-c2scnc2C)cc1)C(C)(C)C)CCOc1ccc(C(=O)c2c(-c3ccc(O)cc3)sc3cc(O)ccc23)cc1 [compound 32, (2S,4R)-1-((S)-2-(2-((5-(Ethyl(2-(4-(6-hydroxy-2-(4-hydroxyphenyl)benzo[b]thiophene-3-carbonyl)phenoxy)ethyl)amino)pentyl)oxy)acetamido)-3,3-dimethylbutanoyl)-4-hydroxy-N—((S)-1-(4-(4-methylthiazol-5-yl)phenyl)ethyl)pyrrolidine-2-carboxamide]",IC50,"MCF-7 cells [1]; Homo sapiens, MCF7, 96 h, read-out: IC50, inhibition of cell proliferation",0.77 nM
same,maximum inhibition (Imax),"MCF-7 cells [1]; MCF-7 cells, WST-8, 4 days",57.5%
same,cell proliferation inhibition,[2],does not exhibit the cell proliferation inhibition effects
same,blocking of ER degradation by compound 32 with 1 μM VHL ligand 11,ERα; 1 μM VHL ligand 11 pretreatment 2 h,only slightly
same,ER degradation induced by compound 32 on addition of carfilzomib,ERα; 1 μM proteasome inhibitor carfilzomib pretreatment 2 h,significantly reduced
same,ER degradation induced by compound 32 on addition of raloxifene,ERα; 1 μM raloxifene pretreatment 2 h,significantly reduced
same,blocking of ER degradation by compound 32 with 5 μM or 10 μM VHL ligand 11,ERα; 5 μM or 10 μM of 11 pretreatment 2 h,completely blocked
same,suppression of pGR and GREB1 expression compared with fulvestrant,[3]; 10 nM and 100 nM,slightly more effective than fulvestrant
same,suppression of pGR and GREB1 expression compared with raloxifene,[3]; 10 nM and 100 nM,significantly more effective than raloxifene
same,suppression of expression of pGR and GREB1,[3]; qRT-PCR,strongly suppressed
same,reduction of cell proliferation (crystal violet staining),MCF-7 cells [4],reduced cell proliferation more significantly than raloxifene or fulvestrant
